From the supplement of paper PMC10331698
± gives the standard deviation of the averaged measurements.

Key:
Assay in all cases: level (log10 ratio to DMSO vehicle control); higher = higher biomarker level / cell amount than vehicle control
Conditions in all cases: in DMSO
[1] = compound: O=C(O)C(F)(F)OC(F)(F)C(F)(F)OC(F)(F)F [Perfluoro-3,6-dioxaheptanoic acid]
Procedure: (§1)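 BioMAP Diversity Plus panel of 12 human primary cell co-culture systems (3C, 4H, LPS, SAg, BT, BF4T, BE3C, CASM3C, HDF3CGF, KF3CT, MyoF, Mphg). Compounds were added 1 h before stimulation and left for 24 h (MyoF 48 h; BT 72 h for soluble read-outs or 6 d for IgG). Biomarkers were read by ELISA, cytotoxicity by SRB, PBMC viability and proliferation by Alamar Blue. Each well value was divided by the mean of 8 DMSO control wells on the same plate and log10 transformed; duplicate blinded samples were tested at 4 concentrations.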

[2] = compound: O=S(=O)(O)C(F)(F)C(F)(F)C(F)(F)C(F)(F)C(F)(F)C(F)(F)F [Perfluorohexanesulfonic acid]
Procedure: as §1

[3] = compound: O=C(O)C(F)(F)C(F)(F)OC(F)(F)F [Perfluoro-3-methoxypropanoic acid]
Procedure: as §1

[4] = compound: NCC(F)(F)C(F)(F)C(F)(F)C(F)(F)C(F)(F)C(F)(F)C(F)(F)F [1H,1H-Perfluorooctylamine]
Procedure: as §1

[5] = compound: O=C(O)C(F)(F)C(F)(F)C(F)(F)OC(F)(C(F)(F)F)C(F)(F)F [Perfluoro-4-isopropoxybutanoic acid]
Procedure: as §1

[6] = compound: C=CC(=O)OCC(F)(F)C(F)(F)C(F)(F)C(F)(F)C(F)(F)C(F)(F)C(F)(F)F [1H,1H-Perfluorooctyl acrylate]
Procedure: as §1

[7] = compound: OCCC(F)(F)C(F)(F)C(F)(F)C(F)(F)C(F)(F)C(F)(F)F [6:2 Fluorotelomer alcohol]
Procedure: as §1

Test System	level (log10) ([1]; 6700 nM)	level (log10) ([1]; 20000 nM)	level (log10) ([1]; 60000 nM)	level (log10) ([2]; 6700 nM)	level (log10) ([2]; 20000 nM)	level (log10) ([2]; 60000 nM)	level (log10) ([3]; 6700 nM)	level (log10) ([3]; 20000 nM)	level (log10) ([3]; 60000 nM)	level (log10) ([4]; 6700 nM)	level (log10) ([4]; 20000 nM)	level (log10) ([4]; 60000 nM)	level (log10) ([5]; 6700 nM)	level (log10) ([5]; 20000 nM)	level (log10) ([5]; 60000 nM)	level (log10) ([6]; 6700 nM)	level (log10) ([6]; 20000 nM)	level (log10) ([6]; 60000 nM)	level (log10) ([7]; 6700 nM)	level (log10) ([7]; 20000 nM)
BF4T:CD106/VCAM-1	-0.035 ± 0.055	-0.0205 ± 0.032	-0.01 ± 0.017	-0.022 ± 0.024	-0.019 ± 0.0014	-0.0155 ± 0.033	-0.025 ± 0.031	-0.029 ± 0.011	0.022 ± 0.014	0.002	0.0045 ± 0.00071	0.0215 ± 0.032	-0.042	-0.035 ± 0.02	-0.0065 ± 0.037	-0.0105 ± 0.0021	-0.04 ± 0.0014	-0.049 ± 0.011	-0.0195 ± 0.042	-0.0525 ± 0.028
BF4T:IL-1alpha	-0.0225 ± 0.035	-0.021 ± 0.024	-0.0105 ± 0.018	-0.0055 ± 0.005	-0.025 ± 0.0042	0.0095 ± 0.00071	-0.0055 ± 0.03	-0.021 ± 0.0042	0.004 ± 0.045	0.001 ± 0.0057	-0.0175 ± 0.0035	0.0065 ± 0.013	-0.008 ± 0.018	-0.0245 ± 0.015	-0.012 ± 0.023	-0.0075 ± 0.00071	0.0045 ± 0.0021	-0.0125 ± 0.013	-0.002 ± 0.0014	-0.0125 ± 0.021
4H:SRB	0.009 ± 0.0042	0.0085 ± 0.0035	0 ± 0.0042	-0.0245 ± 0.015	-0.025 ± 0.017	-0.045 ± 0.023	-0.013 ± 0.0071	-0.004 ± 0.0071	0.0015 ± 0.033	-0.003 ± 0.0042	0.0005 ± 0.011	0.003 ± 0.042	-0.0085 ± 0.021	-0.008 ± 0.023	-0.0275 ± 0.019	0.003 ± 0.016	0.0015 ± 0.013	0.0045 ± 0.0064	-0.011 ± 0.024	-0.006 ± 0.024
SAg:CD69	-0.024 ± 0.0085	-0.013 ± 0.014	-0.029 ± 0.0028	-0.0235 ± 0.00071	-0.0175 ± 0.012	-0.06 ± 0.0014	0.0005 ± 0.00071	0.0225 ± 0.011	-0.0005 ± 0.018	-0.0095 ± 0.0092	0.0005 ± 0.0035	0.006 ± 0.016	-0.0085 ± 0.00071	-0.0055 ± 0.005	-0.016 ± 0.0042	-0.0205 ± 0.021	-0.024 ± 0.011	-0.035 ± 0.018	0.012 ± 0.025	-0.012 ± 0.016
LPS:CD62E/E-Selectin	0 ± 0.021	-0.018 ± 0.05	-0.006 ± 0.017	-0.0035 ± 0.023	0.0025 ± 0.0064	0.008 ± 0.035	-0.0015 ± 0.011	-0.0075 ± 0.005	0.0105 ± 0.0035	-0.017 ± 0.03	-0.005 ± 0.033	0.008 ± 0.017	-0.004 ± 0.013	-0.013 ± 0.048	0.001 ± 0.021	0.0005 ± 0.0021	0.0095 ± 0.0092	0.0115 ± 0.011	0.01 ± 0.038	-0.025 ± 0.025
LPS:CXCL8/IL-8	0.007 ± 0.028	0.0265 ± 0.0064	0.0505 ± 0.0078	-0.0005 ± 0.0021	0.0025 ± 0.0078	0.0675 ± 0.047	0.0285 ± 0.035	0.018 ± 0.017	0.027 ± 0.0014	-0.0315 ± 0.011	-0.0265 ± 0.0035	-0.0105 ± 0.033	0.0515 ± 0.0021	0.0935 ± 0.035	0.134 ± 0.018	0.004 ± 0.0042	0.0185 ± 0.0064	0.013 ± 0.016	0.071 ± 0.038	0.039 ± 0.023
BE3C:CXCL11/I-TAC	0.011 ± 0.023	0.008 ± 0.0014	0.012 ± 0.02	-0.004 ± 0.016	0.004 ± 0.011	0.0035 ± 0.016	-0.0125 ± 0.0035	-0.0115 ± 0.0092	0.0045 ± 0.00071	0.0105 ± 0.005	-0.012 ± 0.011	-0.0105 ± 0.005	-0.0095 ± 0.005	0.008 ± 0.0014	0.018 ± 0.0099	0.0115 ± 0.00071	0.016 ± 0.0099	0.009 ± 0.0014	-0.017 ± 0.0028	-0.022 ± 0.0057
BF4T:CD90	-0.012 ± 0.0042	0.001 ± 0.0099	-0.011 ± 0.0014	-0.001 ± 0.014	-0.0115 ± 0.0078	-0.0305 ± 0.0064	-0.012 ± 0.021	-0.0165 ± 0.013	-0.0095 ± 0.0035	0.015 ± 0.021	0.009 ± 0.0014	0.0065 ± 0.012	-0.002 ± 0.0057	-0.025 ± 0.0028	-0.0075 ± 0.012	-0.013 ± 0.014	-0.003 ± 0.0028	-0.004 ± 0.031	-0.0035 ± 0.0021	-0.0165 ± 0.011
LPS:SRB	-0.011 ± 0.0028	-0.0105 ± 0.00071	-0.0095 ± 0.00071	-0.0075 ± 0.013	-0.0115 ± 0.00071	-0.0175 ± 0.018	0.006 ± 0.0085	0.011 ± 0.0099	0.026 ± 0.0028	-0.0005 ± 0.0035	-0.0025 ± 0.0092	0.006 ± 0.037	0.0075 ± 0.015	0.018 ± 0.0099	0.0215 ± 0.016	-0.006 ± 0.0028	-0.0095 ± 0.0078	-0.012 ± 0.016	0.0095 ± 0.0078	0.004 ± 0.0071
SAg:CD38	-0.0055 ± 0.052	-0.003 ± 0.047	-0.014 ± 0.024	-0.006 ± 0.014	0.004 ± 0.038	-0.023 ± 0.014	-0.007 ± 0.0042	0.003 ± 0.0085	-0.0005 ± 0.012	0.0005 ± 0.012	-0.0155 ± 0.00071	0.0065 ± 0.005	-0.003 ± 0.014	-0.0015 ± 0.0035	-0.017 ± 0.014	-0.016 ± 0.018	-0.009 ± 0.016	-0.02 ± 0.014	0.0115 ± 0.026	-0.008 ± 0.0071
